Test: Solubility of active ingredients in base oil composition
Format: physicochemical
Conditions: active ingredient in base oil composition; loading without asterisk

For O=C(O)c1ccccc1O [Salicylic Acid, reference compound], the “Loading (wt %), soluble (not marked *)” value was 3%.

From patent US9918931B2, “Method for providing a customized skin care product to a customer” (L'OREAL, priority 2016, dated 2018)
